Reference: US7511119B2, “PRAME peptide analogues” (MannKind Corporation, priority 2005, dated 2009)
Square brackets hold non-standard residues; d marks the D form. Peptide text beside a SMILES is read from it. Phe(4-F) = N[C@@H](Cc1ccc(F)cc1)C(=O)O

test system: T cell lines against natural epitope SSX-241-49; test: Cross-reactivity and functional avidity: IFN-gamma production by T cell lines raised against natural SSX-2 41-49; format: cell-based, HHD transgenic mice; settings: T cells raised to native peptide tested on analogs; footnote * and unit not given;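 also: analogs presented ex vivo by competent APCs to T cells specific for the non-mutated epitope, scored by lowest activating concentration, peak cytokine effect and concentration at that peak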

| Structure (SMILES) | Cross-reactivity and fct avidity (native to analogs)* |
| --- | --- |
| CC[C@H](NC(=O)[C@@H](N)CCCCN)C(=O)N[C@@H](CO)C(=O)N[C@@H](CCC(=O)O)C(=O)N[C@@H](CCCCN)C(=O)N[C@H](C(=O)N[C@@H](Cc1ccccc1)C(=O)N[C@@H](Cc1ccc(O)cc1)C(=O)N[C@H](C(=O)O)C(C)C)[C@@H](C)CC [SSX2 41-49 (A42(Abu)), KAbuSEKIFYV] | 0.3 |
| CC[C@H](C)[C@H](NC(=O)[C@H](CCCCN)NC(=O)[C@H](CCC(=O)O)NC(=O)[C@H](CO)NC(=O)C(C)(C)NC(=O)[C@@H](N)CCCCN)C(=O)N[C@@H](Cc1ccccc1)C(=O)N[C@@H](Cc1ccc(O)cc1)C(=O)N[C@H](C(=O)O)C(C)C [SSX2 41-49 (A42(Aib)), KAibSEKIFYV] | 3 |
| CC[C@H](C)[C@H](NC(=O)[C@H](CCCCN)NC(=O)[C@H](CCC(=O)O)NC(=O)[C@H](CO)NC(=O)[C@H](Cc1ccc2ccccc2c1)NC(=O)[C@@H](N)CCCCN)C(=O)N[C@@H](Cc1ccccc1)C(=O)N[C@@H](Cc1ccc(O)cc1)C(=O)N[C@H](C(=O)O)C(C)C [SSX2 41-49 (A42(Nal-2)), KNal-2SEKIFYV] | 3 |
| CCCC[C@H](NC(=O)[C@@H](N)CCCCN)C(=O)N[C@@H](CO)C(=O)N[C@@H](CCC(=O)O)C(=O)N[C@@H](CCCCN)C(=O)N[C@H](C(=O)N[C@@H](Cc1ccccc1)C(=O)N[C@@H](Cc1ccc(O)cc1)C(=O)N[C@H](C(=O)O)C(C)C)[C@@H](C)CC [SSX2 41-49 (A42(Nle)), KNleSEKIFYV] | 0.1 |
| CCC[C@H](NC(=O)[C@@H](N)CCCCN)C(=O)N[C@@H](CO)C(=O)N[C@@H](CCC(=O)O)C(=O)N[C@@H](CCCCN)C(=O)N[C@H](C(=O)N[C@@H](Cc1ccccc1)C(=O)N[C@@H](Cc1ccc(O)cc1)C(=O)N[C@H](C(=O)O)C(C)C)[C@@H](C)CC [SSX2 41-49 (A42(Nva)), KNvaSEKIFYV] | 0.1 |
| CC[C@H](C)[C@H](NC(=O)[C@H](CCCCN)NC(=O)[C@H](CCC(=O)O)NC(=O)[C@H](CO)NC(=O)[C@H](CC(C)C)NC(=O)[C@@H](N)CCCCN)C(=O)N[C@@H](Cc1ccccc1)C(=O)N[C@@H](Cc1ccc(O)cc1)C(=O)N[C@H](C(=O)O)C(C)C [SSX2 41-49 (A42L)] | 0.03 |
| CC[C@H](C)[C@H](NC(=O)[C@H](CCCCN)NC(=O)[C@H](CCC(=O)O)NC(=O)[C@H](CO)NC(=O)[C@H](CC(C)C)NC(=O)[C@H](N)CCCCN)C(=O)N[C@@H](Cc1ccccc1)C(=O)N[C@@H](Cc1ccc(O)cc1)C(=O)N[C@H](C(=O)O)C(C)C [SSX2 41-49 (K41(D-Lys), A42L)] | 10 |
| CC[C@H](C)[C@H](NC(=O)[C@H](CCCCN)NC(=O)[C@H](CCC(=O)O)NC(=O)[C@H](CO)NC(=O)[C@@H](NC(=O)[C@H](N)CCCCN)C(C)C)C(=O)N[C@@H](Cc1ccccc1)C(=O)N[C@@H](Cc1ccc(O)cc1)C(=O)N[C@H](C(=O)O)C(C)C [SSX2 41-49 (K41(D-Lys), A42V)] | 10 |
| CC[C@H](C)[C@H](NC(=O)[C@H](CCCCN)NC(=O)[C@H](CCC(=O)O)NC(=O)[C@H](CO)NC(=O)[C@H](C)NC(=O)[C@@H](N)Cc1ccc(F)cc1)C(=O)N[C@@H](Cc1ccccc1)C(=O)N[C@@H](Cc1ccc(O)cc1)C(=O)N[C@H](C(=O)O)C(C)C [SSX2 41-49 (K41(Phe-4F))] (H-[Phe(4-F)]ASEKIFYV-OH) | 3 |
| CC[C@H](C)[C@H](NC(=O)[C@H](CCCCN)NC(=O)[C@H](CCC(=O)O)NC(=O)[C@H](CO)NC(=O)[C@H](CC(C)C)NC(=O)[C@@H](N)Cc1ccccc1)C(=O)N[C@@H](Cc1ccccc1)C(=O)N[C@@H](Cc1ccc(O)cc1)C(=O)N[C@H](C(=O)O)C(C)C [SSX2 41-49 (K41F, A42L)] | 0.3 |
| CC[C@H](C)[C@H](NC(=O)[C@H](CCCCN)NC(=O)[C@H](CCC(=O)O)NC(=O)[C@H](CO)NC(=O)[C@H](CCSC)NC(=O)[C@@H](N)Cc1ccccc1)C(=O)N[C@@H](Cc1ccccc1)C(=O)N[C@@H](Cc1ccc(O)cc1)C(=O)N[C@H](C(=O)O)C(C)C [SSX2 41-49 (K41F, A42M)] | 3 |
| CC[C@H](C)[C@H](NC(=O)[C@H](CCCCN)NC(=O)[C@H](CO)NC(=O)[C@H](CO)NC(=O)[C@@H](NC(=O)[C@@H](N)Cc1ccccc1)C(C)C)C(=O)N[C@@H](Cc1ccccc1)C(=O)N[C@@H](Cc1ccc(O)cc1)C(=O)N[C@H](C(=O)O)C(C)C [SSX2 41-49 (K41F, A42V, E44S)] | >10 |
| CC[C@H](C)[C@H](NC(=O)[C@H](CCCCN)NC(=O)[C@@H](NC(=O)[C@H](CO)NC(=O)[C@@H](NC(=O)[C@@H](N)Cc1ccccc1)C(C)C)[C@@H](C)O)C(=O)N[C@@H](Cc1ccccc1)C(=O)N[C@@H](Cc1ccc(O)cc1)C(=O)N[C@H](C(=O)O)C(C)C [SSX2 41-49 (K41F, A42V, E44T)] | >10 |
| CC[C@H](C)[C@H](NC(=O)[C@H](CCCCN)NC(=O)[C@H](CCC(=O)O)NC(=O)[C@H](CO)NC(=O)[C@@H](NC(=O)[C@@H](N)Cc1ccccc1)C(C)C)C(=O)N[C@@H](Cc1ccccc1)C(=O)N[C@@H](Cc1ccc(O)cc1)C(=O)N[C@@H](C)C(=O)O [SSX2 41-49 (K41F, A42V, V49A)] | 1 |
| CC[C@H](NC(=O)[C@H](Cc1ccc(O)cc1)NC(=O)[C@H](Cc1ccccc1)NC(=O)[C@@H](NC(=O)[C@H](CCCCN)NC(=O)[C@H](CCC(=O)O)NC(=O)[C@H](CO)NC(=O)[C@@H](NC(=O)[C@@H](N)Cc1ccccc1)C(C)C)[C@@H](C)CC)C(=O)O [SSX2 41-49 (K41F, A42V, V49Abu)] | 1 |
| CC[C@H](C)[C@H](NC(=O)[C@H](CCCCN)NC(=O)[C@H](CCC(=O)O)NC(=O)[C@H](CO)NC(=O)[C@@H](NC(=O)[C@@H](N)Cc1ccccc1)C(C)C)C(=O)N[C@@H](Cc1ccccc1)C(=O)N[C@@H](Cc1ccc(O)cc1)C(=O)N[C@@H](CC(C)C)C(=O)O [SSX2 41-49 (K41F, A42V, V49L)] | >10 |
| CC[C@H](C)[C@H](NC(=O)[C@H](CCCCN)NC(=O)[C@H](CCC(=O)O)NC(=O)[C@H](CO)NC(=O)[C@@H](NC(=O)[C@@H](N)Cc1ccccc1)C(C)C)C(=O)N[C@@H](Cc1ccccc1)C(=O)N[C@@H](Cc1ccc(O)cc1)C(=O)N(C)[C@H](C(=O)O)C(C)C [SSX2 41-49 (K41F, A42V, V49MeVal)] | 10 |
| CCCC[C@H](NC(=O)[C@H](Cc1ccc(O)cc1)NC(=O)[C@H](Cc1ccccc1)NC(=O)[C@@H](NC(=O)[C@H](CCCCN)NC(=O)[C@H](CCC(=O)O)NC(=O)[C@H](CO)NC(=O)[C@@H](NC(=O)[C@@H](N)Cc1ccccc1)C(C)C)[C@@H](C)CC)C(=O)O [SSX2 41-49 (K41F, A42V, V49Nle)] | >10 |
| CCC[C@H](NC(=O)[C@H](Cc1ccc(O)cc1)NC(=O)[C@H](Cc1ccccc1)NC(=O)[C@@H](NC(=O)[C@H](CCCCN)NC(=O)[C@H](CCC(=O)O)NC(=O)[C@H](CO)NC(=O)[C@@H](NC(=O)[C@@H](N)Cc1ccccc1)C(C)C)[C@@H](C)CC)C(=O)O [SSX2 41-49 (K41F, A42V, V49Nva)] | 0.1 |
